Experiment in all cases: Antibacterial effect test
Assay [1] relates to Escherichia coli FMK1254. The format is cell-based. Particulars: for antibacterial effects (in words): E. coli. As for the experimental part:
(§1) Antibacterial Effect Test
(§2) Composition of Example 1: The composition of Example 1 was filled in a pump foamer (manufactured by DAIWA CAN COMPANY).
(§3) Ethanol gel: A hand cleansing gel made by […] CO. LTD. (ethanol content: 70%, formulated with aloe extract).
(§4) MacConkey Agar (Difco) was employed for E. coli FMK1254 and Pathogenic E. coli 0157:H7 SAKAI.
(§5) 1) The respective strains were incubated overnight in TSB at 37° C. The bacterial suspensions were diluted with physiologic saline to have a concentration of approximately 10^4 CFU/ml each.
(§6) 2) Next, 4.5 g each of the test samples were added to dishes (Composition of Example 1 and Control composition were added in a foamed state.). Thereafter, 0.5 ml each of the bacterial suspensions obtained in the process 1) was inoculated thereinto and mixed well. For every combination (12 combinations in total) of the four test samples and the three bacterial suspensions, two sample dishes were prepared in this manner.
(§7) 3) Regarding the first ones of these sample dishes, the number of bacteria was counted immediately after inoculation of the bacterial suspensions, and also after one and two hours of incubation at 37° C. For incubation, the dishes were put in an incubator, with the lids slightly open. To count the number of bacteria of each strain, two agar media were respectively inoculated with 0.1 ml of the bacterial suspension and incubated for 24 hours at 37° C. Later, the number of colonies in both agar media was counted and averaged.
(§8) 4) The second ones of the sample dishes prepared in the process 2) were incubated for two hours at 37° C. after inoculation of the bacterial suspensions. Thereafter, 0.5 ml each of the corresponding bacterial suspensions was again inoculated thereinto and mixed well. The number of bacteria was counted immediately after reinoculation of the bacterial suspensions, and also after one and two hours of incubation at 37° C., in the same manner as in the process 3).
(§9) In Tables 2-4, “B” indicates the theoretical number of bacteria in the mixtures of the bacterial suspensions and the test samples. The symbol “*” indicates reinoculation.

Assay [2] has as its system Pathogenic E. coli O157:H7 Sakai. The format is cell-based, Escherichia coli. Particulars: for number of bacteria: Pathogenic E. coli O157:H7 Sakai; for antibacterial effects (in words): pathogenic E. coli. As for the experimental part: as §1, §2
Ethanol gel: A hand cleansing gel made by FUMAKILLA CO. LTD. (ethanol content: 70%, formulated with aloe extract).
Pathogenic Escherichia coli 0157:H7 Sakai
as §4, §5, §6, §7, §8, §9

Assay [3] deals with Staphylococcus aureus ATCC25923. In kind it is cell-based. Particulars: for antibacterial effects (in words): S. aureus. The method, then: as §1, §2, §3
Staphylococcus aureus ATCC25923
Nutrient Agar (Difco) was employed for S. aureus ATCC25923.
as §5, §6, §7, §8, §9

[4] abbreviates: after two hours of reinoculation.

In the case of `CCO` [70% Ethanol, Ethanol], the number of bacteria in assay [1] (E. coli FMK1254, 1 hour at 37° C. after reinoculation) is 4095 CFU/ml; in assay [1] (E. coli FMK1254, 1 hour of incubation at 37° C. after inoculation), “≦9 CFU/ml”; in assay [1] (E. coli FMK1254, 2 hours at 37° C. after reinoculation), 2195 CFU/ml; in assay [1] (E. coli FMK1254, 2 hours of incubation at 37° C. after inoculation), “≦9 CFU/ml”; in assay [1] (E. coli FMK1254, immediately after inoculation (0)), “≦9 CFU/ml”; in assay [1] (E. coli FMK1254, immediately after reinoculation (0*)) it was 2280 CFU/ml. Besides, the number of bacteria entry in assay [2] (1 hour at 37° C. after inoculation) is given as “≦9 CFU/ml”; in assay [2] (1 hour at 37° C. after reinoculation) it was “≧30000 CFU/ml”; in assay [2] (2 hours at 37° C. after inoculation), “≦9 CFU/ml”; in assay [2] (2 hours at 37° C. after reinoculation), “≧30000 CFU/ml”; in assay [2] (immediately after inoculation (0)), “≦9 CFU/ml”; in assay [2] (immediately after reinoculation (0*)), “≧30000 CFU/ml”. Moreover, the number of bacteria entry in assay [3] (S. aureus ATCC25923, 1 hour at 37° C. after inoculation) is listed as “≦9 CFU/ml”; in assay [3] (S. aureus ATCC25923, 1 hour at 37° C. after reinoculation), 75 CFU/ml; in assay [3] (S. aureus ATCC25923, 2 hours at 37° C. after inoculation), “≦9 CFU/ml”; in assay [3] (S. aureus ATCC25923, 2 hours at 37° C. after reinoculation) it was 45 CFU/ml; in assay [3] (S. aureus ATCC25923, immediately after inoculation (0)) it was “≦9 CFU/ml”; in assay [3] (S. aureus ATCC25923, immediately after reinoculation (0*)), 180 CFU/ml. Moreover, the “antibacterial effects (in words)” value in assay [1] (after two hours of inoculation) is recorded as “excellent”; in assay [1] (setting [4]), “totally lost”; in assay [2] (after two hours of inoculation), “excellent”; in assay [2] (setting [4]) it was “totally lost”; in assay [3] (after two hours of inoculation) it was “excellent”; in assay [3] (setting [4]) it was “not sufficient”.
